Laboratory results as given in patent US11459308B2 (priority 2016, dated 2022).
pIC50: −log10 of the molar value.

Experiments:
rVSV-EBOV GP = assay: microbe, parasite or virus in culture; format: cell-based, Zaire Ebolavirus; details: Zaire ebolavirus, read-out: rVSV-EBOV IC50
[1] = system: authentic EBOV (EBOV-Zaire 1995); assay: microbe, parasite or virus in culture; format: cell-based, Ebola virus; details: Zaire ebolavirus, Vero, 48 h, read-out: infectious EBOV-Z IC50
in vitro = details: African green monkey

Compound | pIC50 (rVSV-EBOV GP) | pIC50 [1] | CC50 (in vitro)
O=[N+]([O-])c1ccc(N2CCN(Cc3ccccn3)CC2)cc1NC(c1ccccc1)c1ccccc1 [MBX 3558, 1-(benzhydrylamino)-5-[4-(pyridin-2-ylmethyl)piperazin-1-yl]-2-nitrobenzene] | 5.40 | 5.55 | > 200 µM
CCCCN1CCN(c2ccc([N+](=O)[O-])c(NC(c3ccccc3)c3ccccc3)c2)CC1 [MBX 3559, 1-(benzhydrylamino)-5-(4-butylpiperazin-1-yl)-2-nitrobenzene] | 5.44 | 5.77 | > 200 µM
CC(C)N1CCN(c2ccc([N+](=O)[O-])c(NC(c3ccccc3)c3ccccc3)c2)CC1 [MBX 3561, 1-(benzhydrylamino)-5-(4-isopropylpiperazin-1-yl)-2-nitrobenzene] | 5.82 | 5.77 | 63 µM
O=[N+]([O-])c1ccc(N2CCN(Cc3ccncc3)CC2)cc1NC(c1ccccc1)c1ccccc1 [MBX 3562, 1-(benzhydrylamino)-5-[4-(pyridin-4-ylmethyl)piperazin-1-yl]-2-nitrobenzene] | 5.25 | 5.51 | > 200 µM
CCCN1CCN(c2ccc([N+](=O)[O-])c(NC(c3ccccc3)c3ccccc3)c2)CC1 [MBX 3566, 1-(benzhydrylamino)-5-(4-propylpiperazin-1-yl)-2-nitrobenzene] | 5.62 | 5.80 | > 200 µM
CN1CCN(c2cccc(NC(c3ccccc3)c3ccccc3)c2)CC1 [MBX 3567, 1-(benzhydrylamino)-3-(4-methylpiperazin-1-yl)benzene] | 5.60 | 5.39 | 19 µM
O=[N+]([O-])c1ccc(N2CCN(Cc3cccnc3)CC2)cc1NC(c1ccccc1)c1ccccc1 [MBX 3568, 1-(benzhydrylamino)-5-[4-(pyridin-3-ylmethyl)piperazin-1-yl]-2-nitrobenzene] | 5.35 | 5.35 | > 200 µM
O=[N+]([O-])c1ccc(N2CCN(Cc3ccccc3)CC2)cc1NC(c1ccccc1)c1ccccc1 [MBX 3569, 1-(benzhydrylamino)-5-(4-benzylpiperazin-1-yl)-2-nitrobenzene] | < 4.60 | < 4.70 | > 200 µM
O=[N+]([O-])c1ccc(N2CCN(Cc3ccco3)CC2)cc1NC(c1ccccc1)c1ccccc1 [MBX 3575, 1-(benzhydrylamino)-5-[4-(furan-2-ylmethyl)piperazin-1-yl]-2-nitrobenzene] | 5.77 | < 4.70 | > 200 µM
O=[N+]([O-])c1ccc(N2CCN(Cc3cccs3)CC2)cc1NC(c1ccccc1)c1ccccc1 [MBX 3576, 1-(benzhydrylamino)-5-[4-(thiophen-2-ylmethyl)piperazin-1-yl]-2-nitrobenzene] | 5.24 | < 4.70 | > 200 µM
O=[N+]([O-])c1ccc(N2CCN(Cc3ccsc3)CC2)cc1NC(c1ccccc1)c1ccccc1 [MBX 3577, 1-(benzhydrylamino)-5-[4-(thiophen-3-ylmethyl)piperazin-1-yl]-2-nitrobenzene] | 5.19 | < 4.70 | > 200 µM
O=[N+]([O-])c1ccc(N2CCN(C3CCCC3)CC2)cc1NC(c1ccccc1)c1ccccc1 [MBX 3580, 1-(benzhydrylamino)-5-(4-cyclopentylpiperazin-1-yl)-2-nitrobenzene] | 5.74 | 5.57 | > 100 µM
CN1CCN(c2ccnc(NC(c3ccccc3)c3ccccc3)c2)CC1 [MBX 3586, 2-(benzhydrylamino)-4-(4-methylpiperazin-1-yl)pyridine] | 5.15 | 5.59 | 70 µM
O=[N+]([O-])c1ccc(N2CCN(C3CCC3)CC2)cc1NC(c1ccccc1)c1ccccc1 [MBX 3589, 1-(benzhydrylamino)-5-[4-(cyclobutyl)piperazin-1-yl]-2-nitrobenzene] | 6.08 | 5.10 | > 200 µM
